{"source": "patent US20170246144A1", "about": "“METHOD OF PREVENTING OR TREATING SPINOCEREBELLAR ATAXIA BY ADMINISTRATING SILIBININ” (National Taiwan Normal University, priority 2016, published 2017)", "key": {"SCA17 transgenic mice [1]": {"tested_on": "SCA17 transgenic mice", "experiment": "Footprint pattern analysis in SCA17 transgenic mice", "assay_type": "in vivo", "details": "4.5 mg/kg i.p. once every 2 days", "protocol": "(§1) FIGS. 10A-10F show the effects of SB on the body weight and motor performance in SCA17 transgenic mice. Mice were grouped into wild type-saline (WT-saline), transgenic-saline (TG-saline), and transgenic-SB treatment (TG-SB) groups. Mice were injected intraperitoneally with saline or SB (4.5 mg/kg) at 8-week old once every 2 days. […] FIG. 10E and FIG. 10F show respectively the stride length of front-limb/hind-limb at the right-side and the left-side. The values represent means±SD, n=6. *p<0.05, comparing to the TG-saline group.\n(§2) Since the SCA17 mice were 8 weeks old, the mice were injected intraperitoneally with silibinin in saline at 4.5 mg/kg once every 2 days, designated as TG_SB group. The mice in TG_saline group were injected with same amount of saline.\nIn addition, footprint pattern analysis was conducted to observe any abnormity of the gait of the mice. Such test was conducted widely to determine motor skill, coordination and balance. The hindfeet and forefeet of the mouse were coated with red and blue nontoxic paint respectively, and the mouse was allowed to walk along a runway on a fresh sheet of white paper. The distance between the centers of the hind footprint and the fore footprint, the length of the step, and the parallel distance were measured for a continuous 6 steps, excluding the steps in the beginning and at the end. The test was performed once every half month."}, "SH-SY5Y cells [2]": {"tested_on": "SH-SY5Y cells", "experiment": "Western blotting of cleaved caspase-9, cleaved caspase-3 and cleaved PARP after MSG", "assay_type": "cell-based, Human", "details": "15 μM, 100 mM MSG, 24 hours", "protocol": "FIGS. 5A-5D show the effects of SB on the levels of cleaved caspase-9, cleaved caspase-3, and cleaved poly(ADP-ribose) polymerase (PARP) in SH-SY5Y cells treated with MSG FIG. 5A: The levels of […] in 1×10^6 SH-SY5Y cells were measured by western blotting, wherein the control group (Ctrl) was untreated SH-SY5Y cells or the cells were treated with 100 mM MSG, 100 mM MSG+15 μM SB or 100 mM MSG+10 μM MK801 (MK) for 24 hours. Actin was used as a loading control. FIGS. 5B-5D show the quantification results measured by western blotting. Data were the mean values of three independent experiments.\nCaspase belongs to cysteine protease family which is typically closely related to apoptosis, wherein the activation of caspase-9, caspase-3 and […] PARP is associated with delayed excitotoxicity damages. Therefore, western blotting was performed to analyze whether silibinin can protect SH-SY5Y cells from death via caspase-dependent apoptosis pathway in the present embodiment."}, "SH-SY5Y cells [3]": {"tested_on": "SH-SY5Y cells", "experiment": "Annexin V-FITC/PI flow cytometry, apoptosis induced by MSG", "assay_type": "cell-based, Human", "details": "15 μM, 100 mM MSG, 24 hours", "protocol": "1×10^6 SH-SY5Y cells were treated with 100 mM MSG and 15 μM SB or 10 μM MK801 (MK) for 24 hours. Cells were stained with Annexin-V/PI and the apoptosis was measured with a flow cytometry.\nIn order to detect the effects of silibinin in inhibiting the apoptosis induced by glutamate in SH-SY5Y cells. The cells were measured by flow cytometry using Annexin V-FITC/propidium iodide (PI) double-labeling method.\nSH-SY5Y cells were seeded in dish and were treated with 100 mM MSG in combination of 15 μM silibinin or 10 μM MK801 for 24 hours. The cells were then trypsinized and collected by centrifugation at 2,000 rpm for […] followed by double-staining with Annexin V-FITC and PI. Stained cells were analyzed with a flow cytometry (FACS Sorter, Becton, Dickinson and Company). 10,000 cells were recorded in each experiment."}, "nTBP/Q79-EGFP cells": {"tested_on": "nTBP/Q79-EGFP cells", "experiment": "Dot blot and western blotting of protein aggregation, anti-TBP (N12)", "assay_type": "cell-based, Human", "details": "15 μM, Dox 5 days", "protocol": "FIGS. 9A-9C show the effects of SB on protein aggregation in nTBP/Q79-EGFP cells after the induction of Dox, which were analyzed by western blotting and dot blot assays. 1.0×10^6 nTBP/Q36-EGFP cells or nTBP/Q79-EGFP cells were pretreated with 15 μM SB for 1 hour followed by the treatment of 10 μg/mL Dox. Cell lysates were analyzed using western blotting and dot blot assays with anti-TBP (N12) antibody. […] The values represent means±SD. Data were the mean values of three independent experiments.\nIn the present example, dot blot and western blotting methods were used to analyze whether silibinin can reduce the protein aggregation in nTBP/Q79-EGFP cells induced by Dox.\nnTBP/Q36-EGFP cells and nTBP/Q79-EGFP cells were cultured in 6 cm petri-dish for 24 hours followed by the treatment of 15 μM silibinin for 1 hour and the treatment of […] and 10 μM RA for 5 days. The proteins were extracted from the treated cells and analyzed by dot blot and western blotting, wherein the primary antibody is TBP(N-12) antibody and the secondary antibody is HRP conjugated anti-rabbit antibody."}, "SCA17 transgenic mice [4]": {"tested_on": "SCA17 transgenic mice", "experiment": "Rotarod test in SCA17 transgenic mice", "assay_type": "in vivo", "details": "4.5 mg/kg i.p. once every 2 days from 8 weeks old", "protocol": "as §1, §2\nAt the 10th week, the rotarod test was performed to measure the motor coordination of the mice. The mice were trained prior to drug treatment. The mouse was placed on the rotarod with acceleration from 2 to 20 rpm for 5 minutes maintaining at 20 rpm for 5 more minutes to establish the baseline of the behavior of the mouse.\nThe condition was maintained at a linear acceleration from 4 to 30 rpm within 5 minutes during the testing period. The rotarod test was performed once every 2 weeks, since the mouse was 10 weeks old till 20 weeks old. […] The latency of fall was recorded. […]"}, "SH-SY5Y cells [5]": {"tested_on": "SH-SY5Y cells", "experiment": "MTT cytotoxicity of silibinin toward SH-SY5Y cells", "assay_type": "cell-based", "details": "Homo sapiens, 24 hours, read-out: cyto-toxicity toward SH-SY5Y cells, IC50", "from_the_text": "FIGS. 1A and 1B show the effects of silibinin (SB) in reducing the death of SH-SY5Y cell induced by mono-sodium glutamate (MSG). […] Data were the mean values of three independent experiments. Ctrl: control group.\nIn order to monitor the cyto-toxicity of silibinin and its ability in resisting glutamatergic excitotoxicity, MTT colorimetric assay was used to measure the cell viability rate of neuroblastoma SH-SY5Y cells which were pre-treated with silibinin and mono-sodium glutamate (MSG).\nAfter the treatment, 0.5 mg/mL MTT was added to the culture media, and the cells were incubated for 3 hours at 37° C. 100 μL lysis solution (10% sodium dodecyl sulfate (SDS) and 0.01N HCl) was added and the absorbance of the media was read at OD570. The percentage of cell viability was calculated as follows:\nCell viability (%)=(OD570 of experimental well/OD570 of control well)×100%"}}}
{"smiles": "COc1cc(C2Oc3cc([C@H]4Oc5cc(O)cc(O)c5C(=O)[C@@H]4O)ccc3OC2CO)ccc1O", "note": "(stereo partly shown) [silibinin]", "values": [{"measurement": "overlapped length of footprints, left-paw", "setting": "SCA17 transgenic mice [1]", "result": "0.8±0.1", "unit": "cm"}, {"measurement": "overlapped length of footprints, right-paw", "setting": "SCA17 transgenic mice [1]", "result": "1.1±0.1", "unit": "cm"}, {"measurement": "reduction of cleaved PARP level, compared to the increased level with MSG only", "setting": "SH-SY5Y cells [2]", "result": 52, "unit": "%"}, {"measurement": "reduction of cleaved-caspase-3 level, compared to the increased level with MSG only", "setting": "SH-SY5Y cells [2]", "result": 83, "unit": "%"}, {"measurement": "reduction of cleaved-caspase-9 level, compared to the increased level with MSG only", "setting": "SH-SY5Y cells [2]", "result": 125, "unit": "%"}, {"measurement": "apoptosis (apoptotic cells)", "setting": "SH-SY5Y cells [3]", "result": 9.04, "unit": "%"}, {"measurement": "reduction of protein aggregation, dot blot", "setting": "nTBP/Q79-EGFP cells", "result": 67, "unit": "%"}, {"measurement": "reduction of protein aggregation, western blotting", "setting": "nTBP/Q79-EGFP cells", "result": 90, "unit": "%"}, {"measurement": "average time of the latency of fall, rotarod", "setting": "SCA17 transgenic mice [4]", "result": "393 ± 36", "unit": "s"}, {"measurement": "IC50", "setting": "SH-SY5Y cells [5]", "result": 30, "unit": "µM"}]}
